Assay results taken from ChEMBL document CHEMBL1201862, “PubChem BioAssay data set” (2004).
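Step 1: Grow cells in 96-well plates. Step 2: Expose to compound for 48 hours at 5 concentrations. Step 3: Interpolate endpoints linearly; if unreached, use highest concentration. GI50 marks 50% less growth.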 Calls of active or inactive are those of the source. Rule as the data show it: active = GI50 up to about 1.1 µM and inactive = higher.

Legend:
Test in all cases: growth of human tumour cells (NCI), 48 h
ACHN = tested on: ACHN
EKVX = tested on: EKVX
HCC 2998 = tested on: HCC 2998
HCT-116 = tested on: HCT-116
HL-60 = tested on: HL-60
HOP-92 = tested on: HOP-92
HT-29 = tested on: HT-29
KM12 = tested on: KM12
M14 = tested on: M14
MOLT-4 = tested on: MOLT-4
NCI-H23 = tested on: NCI-H23
NCI-H522 = tested on: NCI-H522
OVCAR-8 = tested on: OVCAR-8
RPMI-8226 = tested on: RPMI-8226
SF-295 = tested on: SF-295
SK-MEL-5 = tested on: SK-MEL-5
SNB-19 = tested on: SNB-19
SR = tested on: SR
SW-620 = tested on: SW-620
UACC-257 = tested on: UACC-257

Measured: GI50

C[n+]1c(-c2ccc(/C=N/NC(=O)c3ccc(C(=O)N/N=C/c4ccc(-c5cn6ccccc6[n+]5C)cc4)cc3)cc2)cn2ccccc21
inactive: ACHN > 73.3 µM | EKVX > 100 µM | HCC 2998 > 100 µM | HCT-116 > 100 µM | HL-60 > 100 µM | HOP-92 > 100 µM | HT-29 > 100 µM | KM12 > 100 µM | M14 98.6 µM | MOLT-4 > 100 µM | NCI-H23 > 100 µM | NCI-H522 > 100 µM | OVCAR-8 > 100 µM | RPMI-8226 > 100 µM | SF-295 > 100 µM | SK-MEL-5 > 67.9 µM | SNB-19 > 100 µM | SR > 100 µM | SW-620 > 100 µM | UACC-257 > 63.7 µM

CC(C)[Si]1(C(C)C)OCC2OC(n3c(C(=O)c4ccccc4)cc(=O)[nH]c3=O)CC2O[Si](C(C)C)(C(C)C)O1 (stereo not given)
inactive: ACHN 3.16 µM | EKVX 3.71 µM | HCC 2998 1.65 µM | HCT-116 3.15 µM | HL-60 2.67 µM | HOP-92 2.33 µM | HT-29 1.9 µM | KM12 2.31 µM | M14 3.66 µM | MOLT-4 1.88 µM | NCI-H23 2.52 µM | NCI-H522 1.7 µM | OVCAR-8 1.99 µM | RPMI-8226 2.85 µM | SF-295 3.78 µM | SK-MEL-5 4.37 µM | SNB-19 7.71 µM | SR 2.61 µM | SW-620 2.81 µM | UACC-257 2.34 µM

COc1cc(OC)c(-c2cc(=O)c3c(OC)c(OC)c(OC)c(OC)c3o2)cc1OC
inactive: ACHN > 100 µM | EKVX > 100 µM | HCC 2998 > 100 µM | HCT-116 > 100 µM | HL-60 13.6 µM | HOP-92 11.6 µM | HT-29 > 100 µM | KM12 74.1 µM | M14 > 100 µM | MOLT-4 22.2 µM | NCI-H23 33 µM | NCI-H522 17.7 µM | OVCAR-8 31.3 µM | RPMI-8226 > 20.1 µM | SF-295 28.1 µM | SK-MEL-5 46.8 µM | SNB-19 > 87.7 µM | SR > 28.3 µM | SW-620 > 100 µM | UACC-257 > 100 µM

O=C(c1cc(Cl)cc(Cl)c1)N1CCN(C(=O)c2cc(Cl)cc(Cl)c2)C1=S
inactive: ACHN 16 µM | EKVX 16.8 µM | HCC 2998 16.7 µM | HCT-116 16.4 µM | HL-60 3.31 µM | HOP-92 6.65 µM | HT-29 20.2 µM | KM12 11.7 µM | M14 13.2 µM | MOLT-4 3.94 µM | NCI-H23 17.4 µM | NCI-H522 4.38 µM | OVCAR-8 18.6 µM | RPMI-8226 2.38 µM | SF-295 20.3 µM | SK-MEL-5 16.1 µM | SNB-19 18.3 µM | SR 3.26 µM | SW-620 12.2 µM | UACC-257 13.3 µM

CC(=O)N1C2=CCCC2(C)c2ccccc21 (stereo not given)
inactive: ACHN > 100 µM | EKVX > 100 µM | HCC 2998 26.5 µM | HCT-116 37.1 µM | HL-60 23.7 µM | HOP-92 26.9 µM | HT-29 63.5 µM | KM12 64.9 µM | M14 > 100 µM | MOLT-4 62.8 µM | NCI-H23 86.9 µM | NCI-H522 26.8 µM | OVCAR-8 > 100 µM | RPMI-8226 10.7 µM | SF-295 > 100 µM | SK-MEL-5 41.1 µM | SNB-19 > 100 µM | SR > 100 µM | SW-620 > 100 µM | UACC-257 68.7 µM

N#Cc1ccc(/C=N/C23CC4CC(CC(C4)C2)C3)cc1
inactive: ACHN > 100 µM | EKVX > 100 µM | HCC 2998 > 100 µM | HCT-116 39.4 µM | HL-60 27 µM | HOP-92 83.9 µM | HT-29 63.1 µM | KM12 > 100 µM | M14 > 100 µM | MOLT-4 78.5 µM | NCI-H23 > 100 µM | NCI-H522 > 100 µM | OVCAR-8 > 100 µM | RPMI-8226 > 100 µM | SF-295 > 100 µM | SK-MEL-5 > 10 µM | SNB-19 > 100 µM | SR > 100 µM | SW-620 > 100 µM | UACC-257 > 100 µM

Cc1ccc2c(c1)CC1(Cc3c(C)cccc3C1=O)C2=O (stereo not given)
inactive: ACHN > 100 µM | EKVX > 100 µM | HCC 2998 > 100 µM | HCT-116 > 100 µM | HL-60 > 100 µM | HOP-92 40.2 µM | HT-29 > 100 µM | KM12 > 100 µM | M14 > 100 µM | MOLT-4 > 100 µM | NCI-H23 > 100 µM | NCI-H522 > 100 µM | OVCAR-8 > 100 µM | RPMI-8226 > 100 µM | SF-295 69.8 µM | SK-MEL-5 > 100 µM | SNB-19 37.6 µM | SR > 100 µM | SW-620 > 100 µM | UACC-257 > 100 µM

N#Cc1c(-c2ccccc2)c2c([nH]c1=O)-c1cc([N+](=O)[O-])ccc1CCC2
inactive: ACHN 24.8 µM | EKVX 26.7 µM | HCC 2998 20.7 µM | HCT-116 30.3 µM | HL-60 35.2 µM | HOP-92 16.4 µM | HT-29 34.8 µM | KM12 32.9 µM | M14 33.1 µM | MOLT-4 25 µM | NCI-H23 25.2 µM | NCI-H522 27.5 µM | OVCAR-8 34.3 µM | RPMI-8226 32.9 µM | SF-295 18.9 µM | SK-MEL-5 27.9 µM | SNB-19 36.7 µM | SR 28.8 µM | SW-620 36.7 µM | UACC-257 31.1 µM

COc1cc(C[C@H]2C(=O)OC[C@@H]2Cc2ccc(OC)c(OC)c2)cc(OC)c1
inactive: ACHN 31.2 µM | EKVX 55.6 µM | HCC 2998 > 100 µM | HCT-116 34.7 µM | HL-60 37.2 µM | HOP-92 92.9 µM | HT-29 33.2 µM | KM12 51.6 µM | M14 93.8 µM | MOLT-4 27.2 µM | NCI-H23 39.4 µM | NCI-H522 64.3 µM | OVCAR-8 98.4 µM | RPMI-8226 52.7 µM | SF-295 88.1 µM | SK-MEL-5 16.8 µM | SNB-19 > 100 µM | SR 30.5 µM | SW-620 70.6 µM | UACC-257 51.5 µM

CNC(=O)[C@H](Cc1ccccc1)NC(=O)N(CCC#N)CCN(C(=O)N[C@@H](Cc1ccccc1)C(=O)OC)c1ccccc1
inactive: ACHN > 100 µM | EKVX > 100 µM | HCC 2998 > 10 µM | HCT-116 > 100 µM | HL-60 > 100 µM | HOP-92 > 100 µM | HT-29 > 100 µM | KM12 > 100 µM | M14 > 100 µM | MOLT-4 > 100 µM | NCI-H23 > 100 µM | NCI-H522 > 100 µM | OVCAR-8 > 100 µM | RPMI-8226 > 100 µM | SF-295 > 100 µM | SK-MEL-5 > 100 µM | SNB-19 > 100 µM | SR > 100 µM | SW-620 > 100 µM | UACC-257 > 100 µM

NCC(O)CN.Oc1c(Cl)c(Cl)c(Cl)c(Cl)c1Cl
inactive: ACHN 18.3 µM | EKVX 14.8 µM | HCC 2998 17.9 µM | HCT-116 18.2 µM | HL-60 16 µM | HOP-92 20.7 µM | HT-29 17.8 µM | KM12 20.2 µM | M14 19.7 µM | MOLT-4 19.7 µM | NCI-H23 16.9 µM | NCI-H522 24.6 µM | OVCAR-8 20.2 µM | RPMI-8226 22.8 µM | SF-295 17.6 µM | SK-MEL-5 14.4 µM | SNB-19 21 µM | SR 25.5 µM | SW-620 25.2 µM | UACC-257 21.2 µM

O=C(O)c1cc(/N=N/c2ccc([N+](=O)[O-])cc2)ccc1O
inactive: ACHN 37.3 µM | EKVX 19 µM | HCC 2998 18.7 µM | HCT-116 30.5 µM | HL-60 29 µM | HOP-92 18 µM | HT-29 28.8 µM | KM12 33.2 µM | M14 39.4 µM | MOLT-4 24.8 µM | NCI-H23 40.2 µM | NCI-H522 28 µM | OVCAR-8 33.4 µM | RPMI-8226 21.1 µM | SF-295 32.3 µM | SK-MEL-5 34.6 µM | SNB-19 30.9 µM | SR 29.4 µM | SW-620 36 µM | UACC-257 24 µM

CCCNC(=O)Cn1c(C)cc2ccccc21
inactive: ACHN > 100 µM | EKVX > 100 µM | HCC 2998 > 100 µM | HCT-116 > 100 µM | HL-60 > 100 µM | HOP-92 > 100 µM | HT-29 > 100 µM | KM12 > 100 µM | M14 > 100 µM | MOLT-4 > 100 µM | NCI-H23 > 100 µM | NCI-H522 > 100 µM | OVCAR-8 > 100 µM | RPMI-8226 > 100 µM | SF-295 > 10 µM | SK-MEL-5 > 100 µM | SNB-19 > 100 µM | SR > 100 µM | SW-620 > 100 µM | UACC-257 > 100 µM

Cc1nc2ccccc2c(-n2cccn2)c1CCn1cccn1
inactive: ACHN 80.7 µM | EKVX > 100 µM | HCC 2998 > 100 µM | HCT-116 > 100 µM | HL-60 > 100 µM | HOP-92 52.8 µM | HT-29 > 100 µM | KM12 > 100 µM | M14 > 100 µM | MOLT-4 39.4 µM | NCI-H23 > 100 µM | NCI-H522 > 100 µM | OVCAR-8 > 100 µM | RPMI-8226 > 100 µM | SF-295 > 100 µM | SK-MEL-5 46.6 µM | SNB-19 > 100 µM | SR 71.4 µM | SW-620 > 100 µM | UACC-257 > 100 µM
